The text below walks through data of patent publication US10227323B2, “Glucosylceramide synthase inhibitors for the treatment of diseases” (BIOMARIN PHARMACEUTICAL INC., priority 2013, dated 2019).

Each structure is given as a SMILES string.

In the test the target is T1, GCS (Canis lupus familiaris, UniProt A0A8I3MXG6).
T1 sequence (A0A8I3MXG6 1-394): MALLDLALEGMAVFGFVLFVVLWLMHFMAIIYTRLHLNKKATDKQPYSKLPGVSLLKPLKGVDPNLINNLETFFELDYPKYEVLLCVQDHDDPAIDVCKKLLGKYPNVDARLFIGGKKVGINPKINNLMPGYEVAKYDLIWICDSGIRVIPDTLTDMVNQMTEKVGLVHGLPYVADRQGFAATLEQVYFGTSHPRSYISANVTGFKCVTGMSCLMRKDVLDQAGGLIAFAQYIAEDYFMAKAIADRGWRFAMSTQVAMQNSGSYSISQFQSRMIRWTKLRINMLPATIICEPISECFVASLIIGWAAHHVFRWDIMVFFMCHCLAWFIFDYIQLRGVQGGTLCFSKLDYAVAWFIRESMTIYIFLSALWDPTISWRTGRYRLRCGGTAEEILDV
In words: Assay 1: GCS Enzymatic Assay (MDCK cell lysate, C6-NBD-Ceramide, LC/MS). It is filed as biochemical, canine. Particulars: Table 2; for IC50: data without asterisk, read-out: IC50 (nM) generated from Assay 1; for % inhibition generated from Assay 1: data marked by *. In short, it runs like this: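 LC/MS/MS measurement of glucosylceramide and NBD-ceramide after a 1 h, 37 °C reaction with 100 μM UDP-glucose and 10 μM C6-NBD-ceramide gave IC50s or percent inhibition.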

As for `O=C(N[C@H](CN1CCCC1)[C@H](O)c1ccc(OC2CC2)c(Cl)c1)/C(=N/O)c1ccc(-c2ccc(F)cn2)cc1` [Compound 184, (E)-N-((1R,2R)-1-(3-chloro-4-cyclopropoxyphenyl)-1-hydroxy-3-(pyrrolidin-1-yl)propan-2-yl)-2-(4-(5-fluoropyridin-2-yl)phenyl)-2-(hydroxyimino)acetamide], the IC50 (as a rule, the concentration that inhibits the measured activity by half) is less than 50 nM.
Regarding `O=C(N[C@H](CN1CCCC1)[C@H](O)c1cnc2c(c1)OCCO2)C(F)(F)c1cc2cc(Cl)ccc2o1` [Compound 185, 2-(5-chlorobenzofuran-2-yl)-N-((1R,2R)-1-(2,3-dihydro-[1,4]dioxino[2,3-b]pyridin-7-yl)-1-hydroxy-3-(pyrrolidin-1-yl)propan-2-yl)-2,2-difluoroacetamide], the “% inhibition generated from Assay 1” value was “B* (the compound had a % inhibition of greater than or equal to about 3% but less than about 50%)”.
For `O=C(N[C@H](CN1CCCC1)[C@H](O)c1ccc2c(c1)OCCO2)C(F)(F)c1ccc(-c2ccccn2)cc1` [Compound 186, N-((1R,2R)-1-(2,3-dihydrobenzo[b][1,4]dioxin-6-yl)-1-hydroxy-3-(pyrrolidin-1-yl)propan-2-yl)-2,2-difluoro-2-(4-(pyridin-2-yl)phenyl)acetamide], the “% inhibition generated from Assay 1” value was “A* (the compound had a % inhibition of a percent inhibition of greater than or equal to about 50%)”.
For `O=C(N[C@H](CN1CCCC1)[C@H](O)c1cc(F)c2c(c1)OCCO2)C(F)(F)c1ccc(-c2ccccn2)cc1` [Compound 187, 2,2-difluoro-N-((1R,2R)-1-(8-fluoro-2,3-dihydrobenzo[b][1,4]dioxin-6-yl)-1-hydroxy-3-(pyrrolidin-1-yl)propan-2-yl)-2-(4-(pyridin-2-yl)phenyl)acetamide], the concentration for half-maximal inhibition (IC50) is less than 50 nM.
Consider `O=C(N[C@H](CN1CCC1)[C@H](O)c1cc(F)c2c(c1)OCCO2)C(=O)c1ccc2cc(Cl)ccc2c1` [Compound 188, N-((1R,2R)-3-(azetidin-1-yl)-1-(8-fluoro-2,3-dihydrobenzo[b][1,4]dioxin-6-yl)-1-hydroxypropan-2-yl)-2-(6-chloronaphthalen-2-yl)-2-oxoacetamide], for which the “% inhibition generated from Assay 1” value is listed as “A* (the compound had a % inhibition of a percent inhibition of greater than or equal to about 50%)”.
Turning to `O=C(N[C@H](CN1CCCC1)[C@H](O)c1ccc2c(c1)OCCO2)C(=O)c1ccc(-c2ccc(F)cn2)cc1` [Compound 189, N-((1R,2R)-1-(2,3-dihydrobenzo[b][1,4]dioxin-6-yl)-1-hydroxy-3-(pyrrolidin-1-yl)propan-2-yl)-2-(4-(5-fluoropyridin-2-yl)phenyl)-2-oxoacetamide], the “% inhibition generated from Assay 1” value is “A* (the compound had a % inhibition of a percent inhibition of greater than or equal to about 50%)”.
Turning to `O=C(N[C@H](CN1CCCC1)[C@H](O)c1ccc2c(c1)OCCO2)/C(=N/O)c1ccc(-c2ccc(F)cn2)cc1` [Compound 190, (E)-N-((1R,2R)-1-(2,3-dihydrobenzo[b][1,4]dioxin-6-yl)-1-hydroxy-3-(pyrrolidin-1-yl)propan-2-yl)-2-(4-(5-fluoropyridin-2-yl)phenyl)-2-(hydroxyimino)acetamide], the “% inhibition generated from Assay 1” value is on record as “A* (the compound had a % inhibition of a percent inhibition of greater than or equal to about 50%)”.
Consider `O=C(N[C@H](CN1CCC1)[C@H](O)c1cc(F)c2c(c1)OCCO2)/C(=N/O)c1ccc2cc(Cl)ccc2c1` [Compound 191, (E)-N-((1R,2R)-3-(azetidin-1-yl)-1-(8-fluoro-2,3-dihydrobenzo[b][1,4]dioxin-6-yl)-1-hydroxypropan-2-yl)-2-(6-chloronaphthalen-2-yl)-2-(hydroxyimino)acetamide], for which the IC50 was less than 50 nM.
In the case of `CC(C)(O)COc1ccc([C@@H](O)[C@@H](CN2CCCC2)NC(=O)C(F)(F)C2Cc3ccc(Cl)cc3C2)cc1Cl` (stereo partly drawn) [Compound 192, 2-(5-chloro-2,3-dihydro-1H-inden-2-yl)-N-((1R,2R)-1-(3-chloro-4-(2-hydroxy-2-methylpropoxy)phenyl)-1-hydroxy-3-(pyrrolidin-1-yl)propan-2-yl)-2,2-difluoroacetamide], the “% inhibition generated from Assay 1” value is listed as “A* (the compound had a % inhibition of a percent inhibition of greater than or equal to about 50%)”.
Regarding `CC(C)(O)COc1ccc([C@@H](O)[C@@H](CN2CCCC2)NC(=O)C(=O)c2ccc(-c3ccc(F)cc3)cc2)cc1Cl` [Compound 194, N-((1R,2R)-1-(3-chloro-4-(2-hydroxy-2-methylpropoxy)phenyl)-1-hydroxy-3-(pyrrolidin-1-yl)propan-2-yl)-2-(4′-fluoro-[1,1′-biphenyl]-4-yl)-2-oxoacetamide], the IC50 is less than 50 nM.
Regarding `O=C(N[C@H](CN1CCCC1)[C@H](O)c1ccc2c(c1)OCCO2)C(=O)c1ccc(-c2ccccn2)cc1` [Compound 195, N-((1R,2R)-1-(2,3-dihydrobenzo[b][1,4]dioxin-6-yl)-1-hydroxy-3-(pyrrolidin-1-yl)propan-2-yl)-2-oxo-2-(4-(pyridin-2-yl)phenyl)acetamide], the “% inhibition generated from Assay 1” value is given as “A* (the compound had a % inhibition of a percent inhibition of greater than or equal to about 50%)”.
The same measure, in the same setting: to `O=C(N[C@H](CN1CCCC1)[C@H](O)c1cc(F)c2c(c1)OCCO2)C(F)(F)c1cn2ccccc2n1` [Compound 196, 2,2-difluoro-N-((1R,2R)-1-(8-fluoro-2,3-dihydrobenzo[b][1,4]dioxin-6-yl)-1-hydroxy-3-(pyrrolidin-1-yl)propan-2-yl)-2-(imidazo[1,2-a]pyridin-2-yl)acetamide] belongs “B* (the compound had a % inhibition of greater than or equal to about 3% but less than about 50%)”.
Turning to `O=C(N[C@H](CN1CCCC1)[C@H](O)c1ccc2c(c1)OCCO2)C(=O)c1cccc(Oc2ccc(F)cc2)c1` [Compound 197, N-((1R,2R)-1-(2,3-dihydrobenzo[b][1,4]dioxin-6-yl)-1-hydroxy-3-(pyrrolidin-1-yl)propan-2-yl)-2-(3-(4-fluorophenoxy)phenyl)-2-oxoacetamide], the 50% inhibitory concentration (IC50) was less than 50 nM.
For the compound `CN1CCCc2cc(CCC(F)(F)C(=O)N[C@H](CN3CCCC3)[C@H](O)c3ccc4c(c3)OCCO4)ccc21` [Compound 198, N-((1R,2R)-1-(2,3-dihydrobenzo[b][1,4]dioxin-6-yl)-1-hydroxy-3-(pyrrolidin-1-yl)propan-2-yl)-2,2-difluoro-4-(1-methyl-1,2,3,4-tetrahydroquinolin-6-yl)butanamide], the “% inhibition generated from Assay 1” value is “A* (the compound had a % inhibition of a percent inhibition of greater than or equal to about 50%)”.
On the same count and under the same terms, the same measure for `O=C(N[C@H](CN1CCCC1)[C@H](O)c1ccc(OC2CC2)c(Cl)c1)C(F)(F)c1cn2ccccc2n1` [Compound 199, N-((1R,2R)-1-(3-chloro-4-cyclopropoxyphenyl)-1-hydroxy-3-(pyrrolidin-1-yl)propan-2-yl)-2,2-difluoro-2-(imidazo[1,2-a]pyridin-2-yl)acetamide]: “B* (the compound had a % inhibition of greater than or equal to about 3% but less than about 50%)”.
For the compound `O=C(N[C@H](CN1CCCC1)[C@H](O)c1cc(F)c2c(c1)OCCO2)C(=O)c1ccc(N2CCCCC2)cc1` [Compound 200, N-((2R)-1-(8-fluoro-2,3-dihydrobenzo[b][1,4]dioxin-6-yl)-1-hydroxy-3-(pyrrolidin-1-yl)propan-2-yl)-2-oxo-2-(4-(piperidin-1-yl)phenyl)acetamide], the IC50 was less than 50 nM.
`O=C(N[C@H](CN1CCCC1)[C@H](O)c1ccc2c(c1)OCCO2)C(F)(F)c1cccc(Oc2ccc(F)cc2)c1` [Compound 201, N-((1R,2R)-1-(2,3-dihydrobenzo[b][1,4]dioxin-6-yl)-1-hydroxy-3-(pyrrolidin-1-yl)propan-2-yl)-2,2-difluoro-2-(3-(4-fluorophenoxy)phenyl)acetamide]: the “% inhibition generated from Assay 1” value is “A* (the compound had a % inhibition of a percent inhibition of greater than or equal to about 50%)”.
For `Cn1ncc2cc(-c3ccc(C(F)(F)C(=O)N[C@H](CN4CCCC4)[C@H](O)c4ccc(OC5CC5)c(Cl)c4)cc3)ccc21` [Compound 202, N-((1R,2R)-1-(3-chloro-4-cyclopropoxyphenyl)-1-hydroxy-3-(pyrrolidin-1-yl)propan-2-yl)-2,2-difluoro-2-(4-(1-methyl-1H-indazol-5-yl)phenyl)acetamide], the IC50 is less than 50 nM.
The same measure, in the same setting: to `O=C(N[C@H](CN1CCCC1)[C@H](O)c1cc(F)c2c(c1)OCCO2)C(=O)c1cccc(Oc2ccc(F)cc2)c1` [Compound 203, N-((1R,2R)-1-(8-fluoro-2,3-dihydrobenzo[b][1,4]dioxin-6-yl)-1-hydroxy-3-(pyrrolidin-1-yl)propan-2-yl)-2-(3-(4-fluorophenoxy)phenyl)-2-oxoacetamide] belongs less than 50 nM.
Still for that read-out and setting: to `O=C(N[C@H](CN1CCCC1)[C@H](O)c1ccc(OC2CC2)c(F)c1)C(F)(F)c1ccc(-c2ccc(F)cc2)cc1` [Compound 204, N-((1R,2R)-1-(4-cyclopropoxy-3-fluorophenyl)-1-hydroxy-3-(pyrrolidin-1-yl)propan-2-yl)-2,2-difluoro-2-(4′-fluoro-[1,1′-biphenyl]-4-yl)acetamide] belongs less than 50 nM; to `Cn1ncc2cc(-c3ccc(C(=O)C(=O)N[C@H](CN4CCCC4)[C@H](O)c4ccc(OC5CC5)c(Cl)c4)cc3)ccc21` [Compound 205, N-((1R,2R)-1-(3-chloro-4-cyclopropoxyphenyl)-1-hydroxy-3-(pyrrolidin-1-yl)propan-2-yl)-2-(4-(1-methyl-1H-indazol-5-yl)phenyl)-2-oxoacetamide], less than 50 nM.
